Data taken from patent US5378690A, “New renin-inhibitory oligopeptides, their preparation and their use” (Sankyo Company, Limited, priority 1986, dated 1995).

Biological target: T1, human renin (Homo sapiens, UniProt P00797)
T1 sequence (P00797 67-406): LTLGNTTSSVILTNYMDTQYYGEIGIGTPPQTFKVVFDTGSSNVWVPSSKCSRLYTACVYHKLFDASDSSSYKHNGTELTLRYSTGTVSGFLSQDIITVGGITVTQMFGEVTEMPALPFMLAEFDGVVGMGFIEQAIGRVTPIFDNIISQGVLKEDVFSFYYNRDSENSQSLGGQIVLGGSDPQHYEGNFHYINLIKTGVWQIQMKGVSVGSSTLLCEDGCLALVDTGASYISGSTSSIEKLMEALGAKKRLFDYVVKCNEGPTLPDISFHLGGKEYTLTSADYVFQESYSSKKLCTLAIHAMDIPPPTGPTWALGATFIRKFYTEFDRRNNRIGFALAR
Assay: Inhibition of renin activity
Format: biochemical
Conditions: 1×10^-6 M of the test compound, sheep angiotensinogen, pH 7.3, 10 minutes at 37° C., mean of 3 or 4 experiments
Protocol: The ability of various compounds of the invention to inhibit the activity of renin was determined according to the following method, which follows essentially the procedure of Kokubu et al. [Hypertension, 5, 191-197 (1983)].
Specifically, each test compound was dissolved in 60% v/v aqueous ethanol. Human renin activity in the presence and absence of each compound was measured using sheep angiotensinogen. The total volume of 1 ml of assay mixture contained 0.1 mole/litre phosphate buffer (pH 7.3), human renin (equivalent to 0.5 ng angiotensin I per ml per minute), sheep angiotensinogen (equivalent to 200 ng angiotensin I) 1×10^-6 M of the test compound, 6% v/v ethanol and angiotensinase inhibitors (10 mmole/litre sodium ethylenediaminetetraacetate and 3.4 mmole/litre 8-hydroxyquinoline). The mixture was allowed to react for 10 minutes at 37° C., and then the reaction was stopped by placing the reaction tube in a boiling water bath for 5 minutes. The mixture was then centrifuged and the supernatant (0.05-0.1 ml) was used to assay remaining angiotensin I.
An identical experiment was carried out, as a control, except that the test compound was omitted. From the values obtained were calculated the % inhibition of renin activity achieved by each test compound. The results are shown in the following Table 9, in which the compounds of the invention are identified by the numbers of the Examples given hereafter in which are described their preparation. The values given are the mean of 3 or 4 experiments.

Molecule	Inhibitory Activity (%)
CC(C)CNC(=O)C[C@H](O)[C@H](CC1CCCCC1)NC(=O)[C@H](Cc1cscn1)NC(=O)[C@H](Cc1cccc2ccccc12)NC(=O)CN1CCOCC1 [Example 105, N-{N-[N-Morpholinoacetyl-3-(1-naphthyl)-L-alanyl]-3-(4-thiazolyl)-L-alanyl}-cyclostatin-isobutylamide]	98.0%
CCC(C)CNC(=O)C[C@H](O)[C@H](CC1CCCCC1)NC(=O)[C@H](Cc1cscn1)NC(=O)[C@H](Cc1cccc2ccccc12)NC(=O)CN1CCOCC1 (mixture of isomers) [Example 109]	98.3%
CC(C)N(CC(=O)N[C@@H](Cc1cccc2ccccc12)C(=O)N[C@@H](Cc1cscn1)C(=O)N[C@@H](CC1CCCCC1)[C@@H](O)CC(=O)NCCN1CCOCC1)Cc1ccccc1 [Example 65, N-{N-[N-(N-Benzyl-N-isopropylaminoacetyl)-3-(1-naphthyl)-L-alanyl]-3-(4-thiazolyl)-L-alanyl}-cyclostatin-(2-morpholinoethy)amide]	97.4%
COc1ccccc1N1CCN(CC(=O)N[C@@H](Cc2cccc3ccccc23)C(=O)N[C@@H](Cc2cscn2)C(=O)N[C@@H](CC2CCCCC2)[C@@H](O)CC(=O)NCCN2CCOCC2)CC1 [Example 66, N-[N-{N-[4-(2-Methoxyphenyl)-1-piperazinyl]acetyl-3-(1-naphthyl)-L-alanyl}-3-(4-thiazolyl)-L-alanyl]-cyclostatin-(2-morpholinoethyl)amide]	95.7%
CCN(CC(=O)N[C@@H](Cc1cccc2ccccc12)C(=O)N[C@@H](Cc1cscn1)C(=O)N[C@@H](CC1CCCCC1)[C@@H](O)CC(=O)NCCN1CCOCC1)Cc1ccccc1 [Example 64, N-{N-[N-(N-Benzyl-N-ethylaminoacetyl)-3-(1-naphthyl)-L-alanyl]-3-(4-thiazolyl)-L-alanyl}-cyclostatin-(2-morpholinoethyl)amide]	97.5%
CC(C)C[C@H](NC(=O)[C@H](Cc1cccc2ccccc12)NC(=O)CN(C)Cc1ccccc1)C(=O)N[C@@H](CC1CCCCC1)[C@@H](O)CC(=O)NCCCN1CCCC1=O [Example 73, N-{N-[N-(N-Benzyl-N-methylaminoacetyl)-3-(1-naphthyl)-L-alanyl]-L-leucyl}-cyclostatin-[3-(2-oxo-1-pyrrolidinyl)propyl]amide]	97.7%
N-{N-[(2R)-2-(1-Naphthylmethyl)-3-thiomorpholinocarbonylpropionyl]-3-(4-thiazolyl)-DL-alanyl}-cyclostatin-(2-morpholinoethyl)amide [Example 9]	94.0%
N-{N-[N-(N-Benzyl-N-ethylaminoacetyl)-3-(1-naphthyl)-L-alanyl]-L-leucyl}-cyclostatin-(2-morpholinoethyl)amide [Example 69]	96.1%
CN(CC(=O)N[C@@H](CC1CCCCC1)C(=O)N[C@@H](Cc1cscn1)C(=O)N[C@@H](CC1CCCCC1)[C@@H](O)CC(=O)NCCN1CCOCC1)Cc1ccccc1 [Example 101, N-{N-[N-(N-Benzyl-N-methylaminoacetyl)-3-cyclohexyl-L-alanyl]-3-(4-thiazolyl)-L-alanyl}-cyclostatin-(2-morpholinoethyl)amide]	94.9%
CCC(C)[C@@H](CO)NC(=O)C[C@H](O)[C@H](CC1CCCCC1)NC(=O)[C@H](Cc1cscn1)NC(=O)[C@@H](CC(=O)N1CCOCC1)Cc1cccc2ccccc12 (stereo partly drawn) [Example 31]	98.2%
CCCCNC(=O)C[C@H](O)[C@H](CC1CCCCC1)NC(=O)[C@H](Cc1cscn1)NC(=O)[C@H](Cc1cccc2ccccc12)NC(=O)CN(C)C1CCCCC1 [Example 112, N-{N-[N-(N-Cyclohexyl-N-methylaminoacetyl)-3-(1-naphthyl)-L-alanyl]-3-(4-thiazolyl)-L-alanyl}-cyclostatin-butylamide]	98.0%
CCCCCNC(=O)C[C@H](O)[C@H](CC1CCCCC1)NC(=O)[C@H](Cc1cscn1)NC(=O)[C@H](Cc1cccc2ccccc12)NC(=O)CN1CCOCC1 [Example 107, N-{N-[N-Morpholinoacetyl-3-(1-naphthyl)-L-alanyl]-3-(4-thiazolyl)-L-alanyl}-cyclostatin-pentylamide]	98.4%
N-{N-[N-(N-Benzyl-N-methylaminoacetyl)-3-(1-naphthyl)-L-alanyl]-L-tryptophyl}-cyclostatin-[3-(2-oxo-1-pyrrolidinyl)propyl]amide [Example 76]	97.1%
O=C(C[C@@H](Cc1cccc2ccccc12)C(=O)N[C@@H](Cc1cscn1)C(=O)N[C@@H](CC1CCCCC1)[C@@H](O)CC(=O)NCCN1CCOCC1)NCCc1ccccc1 [Example 13, N-{N-[(2R)-2-(1-Naphthylmethyl)-3-(phenethylcarbamoyl)propionyl]-3-(4-thiazolyl)-L-alanyl}-cyclostatin-(2-morpholinoethyl)amide]	96.6%
CCCCNC(=O)C[C@H](O)[C@H](CC1CCCCC1)NC(=O)[C@H](Cc1cscn1)NC(=O)[C@H](Cc1cccc2ccccc12)NC(=O)CN1CCOCC1 [Example 104, N-{N-[N-Morpholinoacetyl-3-(1-naphthyl)-L-alanyl]-3-(4-thiazolyl)-L-alanyl}-cyclostatin-butylamide]	98.6%
O=C(C[C@H](O)[C@H](CC1CCCCC1)NC(=O)C(Cc1cscn1)NC(=O)[C@H](Cc1cccc2ccccc12)NC(=O)CCCN1CCOCC1)NCCN1CCOCC1 (mixture of isomers) [Example 42, N-55 N-[N-(4-Morpholinobutyryl)-3-(1-naphthyl -L-alanyl]-3-(4-thiazolyl)-DL-alanyl}-cyclostatin-(2-morpholinoethyl)amide]	96.7%
CCCNC(=O)C[C@H](O)[C@H](CC1CCCCC1)NC(=O)[C@H](Cc1cscn1)NC(=O)[C@H](Cc1cccc2ccccc12)NC(=O)CN1CCOCC1 [Example 103, N-{N-[N-Morpholinoacetyl-3-(1-naphthyl)-L-alanyl]-3-(4-thiazolyl)-L-alanyl}-cyclostatin-propylamide]	98.6%
O=C(C[C@H](O)[C@H](CC1CCCCC1)NC(=O)C(Cc1cscn1)NC(=O)[C@@H](CC(=O)N1CCN(c2ccccc2)CC1)Cc1cccc2ccccc12)NCCN1CCOCC1 (mixture of isomers) [Example 15, N-{N-[(2R)-2-(1-Naphthylmethyl)-3-(4-phenyl-1-piperazinylcarbonyl)propionyl]-3-(4-thiazolyl)-DL-alanyl}-cyclostatin-(2-morpholinoethyl)amide]	96.3%
CC(C)CN(CC(C)C)C(=O)C[C@H](O)[C@H](CC1CCCCC1)NC(=O)[C@H](Cc1cscn1)NC(=O)[C@H](Cc1cccc2ccccc12)NC(=O)CN1CCOCC1 [Example 106]	98.2%
O=C(C[C@H](O)[C@H](CC1CCCCC1)NC(=O)C(Cc1cscn1)NC(=O)[C@@H](CC(=O)N1CCOCC1)Cc1cccc2ccccc12)NCCN1CCOCC1 (mixture of isomers) [Example 2, N-{N-[(2R)-3-Morpholinocarbonyl-2-(1-naphthylmethyl)propionyl]-3-(4-thiazolyl)-DL-alanyl}-cyclostatin-(2-morpholinoethyl)amide]	91.2%
CC[C@H](C)[C@@H](CN1CCOCC1)NC(=O)C[C@H](O)[C@H](CC1CCCCC1)NC(=O)[C@H](Cc1cscn1)NC(=O)[C@H](CC1CCCCC1)NC(=O)CN(C)Cc1ccccc1 [Example 100, N-{N-[N-(N-Benzyl-N-methylaminoacetyl)-3-cyclohexyl-L-alanyl]-3-(4-thiazolyl)-L-alanyl}-cyclostatin-[(1S,2S)-2-methyl-1-(morpholinomethyl)butyl]amide]	96.1%
CC[C@H](C)CNC(=O)C[C@H](O)[C@H](CC1CCCCC1)NC(=O)[C@H](Cc1cscn1)NC(=O)[C@H](Cc1cccc2ccccc12)NC(=O)CN1CCOCC1 [Example 98, N-{N-[N-Morpholinoacetyl-3-(1-naphthyl)-L-alanyl]-3-(4-thiazolyl)-L-alanyl}-cyclostatin-[(S)-2-methylbutyl]amide]	98.1%
O=C(C[C@H](O)[C@H](CC1CCCCC1)NC(=O)[C@H](Cc1ccno1)NC(=O)[C@@H](CC(=O)N1CCOCC1)Cc1cccc2ccccc12)NCCN1CCOCC1 [Example 3, N-{N-[(2R)-3-Morpholinocarbonyl-2-(1-naphthylmethyl)propionyl]-3-(5-isoxazolyl)-L-alanyl}-cyclostatin-(2-morpholinoethyl)amide]	92.2%
O=C(C[C@H](O)[C@H](CC1CCCCC1)NC(=O)C(Cc1cscn1)NC(=O)[C@H](Cc1cccc2ccccc12)NC(=O)CN1CCOCC1)NCCN1CCCC1 (mixture of isomers) [Example 43, N-{N-[N-Morpholinoacetyl-3-(1-naphthyl)-L-alanyl]-(4-thiazolyl)-DL-alanyl]-cyclostatin-2-(1-pyrrolidinylethyl)amide]	91.2%
